# Results reported in patent US20090088380A1, “GHRH ANALOGS AND THERAPEUTIC USES THEREOF” (priority 2007, published 2009).
# Where “and” joins values, the source holds several entries; their conditions need not be identical. Equal entries are not always repeated. Non-standard residues stand in square brackets, D forms with d. Residues, ends and D or L forms follow the SMILES beside them.
# Legend:
# Assay type in all cases: in vivo, human
# Leptin and adiponectin = assay: Phase II CKD: fat regulation (leptin, adiponectin)
# Description: Leptin (ng/mL) and adiponectin (μg/mL) were measured at every visit from baseline to Day 28 as markers for regulating metabolism. Samples were analysed at the Department of Nephrology, Endocrinology and Metabolic Diseases, Silesian University School of Medicine, Katowice.
# [1] = tested on: malnourished subjects with CKD; assay: Phase II CKD: anthropometry; conditions: ITT
# Description: Height (cm) was measured only at the screening visit. Anthrompometry was measured at every visit from baseline to follow-up. Anthropometric measurements included weight, skinfold thicknesses and arm circumference. Weight (kg) was measured using a high performance scale. Subjects were asked to stand on the scale with minimal clothing, no shoes, and with even weight on both feet. Skinfold thickness (mm) was measured by using Harpenden Skinfold Callipers at 4 sites: biceps, triceps, suprailiacal and subscapular. Arm circumference (cm) was measured using a tape measure that is flexible, inelastic and metric. The site measured was marked, and the tape was not to be too tight or too loose, and to lie flat on the skin, and be horizontal. Bioimpedance measurements were made to measure body composition at every visit from baseline to Day 28. The bioimpedance scale (RJL Systems) was used. Resistance, reactance and the phase angle were recorded.
# protein turnover = assay: Phase II, malnourished CKD subjects, 1 mg sc twice daily 28 days: 13C-leucine kinetics (protein turnover); conditions: for Leucine oxidation: adjusted mean difference (analog-placebo): Day 28; for Leucine flux: mean (SD): normalised with body weight
# Description: This was a randomized, double-blind, placebo-controlled, parallel-group, multi-centre study of the GHRH(1-29)NH2 synthetic analog in malnourished subjects with CKD. Twenty-six subjects were required to complete the study.
# All study subjects were randomised in equal numbers to receive active GHRH(1-29)NH2 synthetic analog or an equivalent volume of placebo, by sc injection, twice daily for 28 days.
# Vials of investigational product contained 1.4 mg of the GHRH(1-29)NH2 synthetic analog. This was reconstituted with 0.7 mL of water for injection and 0.5 mL of the resultant solution (1.0 mg of active substance) was administered, i.e. approximately 15 μg/kg. The diluent, water for injections, was obtained from commercial stock and labelled accordingly.
# Leucine kinetics was measured on Day 0 and Day 29 by a primed-constant infusion technique during substrate and isotopic steady state. The priming dose consisted of 4.0 μmol/kg of L[1−^13C] leucine and 0.11 mg/kg of NaH^13CO3 and a sustaining infusion rate of L[1−^13C] leucine of 4.0 μmol/kg/h for 4 hours. The isotopes were purchased directly from Cambridge Isotope Laboratories.
# A 1 mL sample of venous blood was taken before administration of the dose of isotope and at 180, 195, 210, 225 and 240 minutes after the start of infusion.
# Breath samples were provided by blowing through a straw into Exetainer® tubes (evacuated 139 B blue tops). Breath samples were collected before the dose of isotope and at 180, 195, 210, 225 and 240 minutes after the start of infusion. Duplicate samples were collected. One sample was sent for analysis; the other was retained in case of loss or breakage. All retained samples were destroyed once the database was locked.
# [2] = tested on: IGF-1, IGFBP-1 and IGFBP-3; assay: Phase II CKD: total IGF-1, IGFBP-1 and IGFBP-3; conditions: day 42
# [3] = tested on: malnourished subjects with CKD; assay: Phase II CKD: vital signs; conditions: for Diastolic blood pressure: mean (SD) / Heart rate: mean (SD) / Systolic blood pressure: mean (SD): Safety Analysis Set
# Text: Mean systolic blood pressure was lower at Day 28 compared with baseline in the GHRH(1-29)NH2 synthetic analog group but higher compared with baseline in the placebo group (Table 37). […] Similarly, mean diastolic blood pressure was lower at Day 28 compared with baseline in the GHRH(1-29)NH2 synthetic analog group but this was not part of a trend.
# [4] = ITT, Baseline, listed as GHRH(1-29)NH2 synthetic analog
# [5] = ITT, listed as GHRH(1-29)NH2 synthetic analog
structure (smiles),measurement,setting,value
"CC[C@H](C)[C@H](NC(=O)[C@H](C)NC(=O)[C@H](CC(=O)O)NC(=O)[C@@H](C)NC(=O)[C@@H](N)Cc1ccc(O)cc1)C(=O)N[C@@H](Cc1ccccc1)C(=O)N[C@H](C(=O)N[C@@H](CC(N)=O)C(=O)N[C@@H](CO)C(=O)N[C@H](Cc1ccc(O)cc1)C(=O)N[C@@H](CCCNC(=N)N)C(=O)N[C@@H](CCCCN)C(=O)N[C@H](C(=O)N[C@@H](CC(C)C)C(=O)N[C@H](C)C(=O)N[C@@H](CCC(N)=O)C(=O)N[C@@H](CC(C)C)C(=O)N[C@@H](CO)C(=O)N[C@@H](C)C(=O)N[C@@H](CCCNC(=N)N)C(=O)N[C@@H](CCCCN)C(=O)N[C@@H](CCCCN)C(=O)N[C@@H](CC(C)C)C(=O)N[C@@H](CCC(N)=O)C(=O)N[C@@H](CC(=O)O)C(=O)N[C@H](C(=O)N[C@@H](CCSC)C(=O)N[C@@H](CO)C(=O)N[C@@H](CCCNC(=N)N)C(N)=O)[C@@H](C)CC)C(C)C)[C@@H](C)O [GHRH analog #5, [D-Ala^2, D-Tyr^10, D-Ala^15, Lys^22] hGHRH(1-29)-NH2] (H-Y[dA]DAIFTNS[dY]RKVL[dA]QLSARKKLQDIMSR-NH2)",Adiponectin: median (95% CI),"Leptin and adiponectin; ITT, Baseline",20604 ng/mL
same,Leptin: mean (SD),"Leptin and adiponectin; ITT, Baseline",23.80 (34.29) ng/mL
same,Adiponectin: median (95% CI),"Leptin and adiponectin; ITT, Day 7",21293 (14535; 27438) ng/mL
same,Adiponectin: median (95% CI),"Leptin and adiponectin; ITT, Day 14",21548 (15810; 27030) ng/mL
same,Adiponectin: median (95% CI),"Leptin and adiponectin; ITT, Day 21",21905 (15810; 31365) ng/mL
same,Adiponectin: median (95% CI),"Leptin and adiponectin; ITT, Day 28",20553 (16320; 27030) ng/mL
same,Leptin: mean (SD),"Leptin and adiponectin; ITT, Day 28",16.81 (21.81) ng/mL
same,Leptin: ratio of means,"Leptin and adiponectin; ITT, Day 28, vs placebo",0.866
same,"Leptin reduction from baseline, range in all but two patients",Leptin and adiponectin; day 28,10-70%
same,Mean leptin as % of the mean in placebo group,Leptin and adiponectin; in vivo,70%
same,Arm circumference: mean (SD),[1]; Baseline,26.35 (5.42) cm
same,Body weight: mean (SD),[1]; Baseline,62.84 (9.98) kg
same,Skinfold thickness biceps: median,[1]; Baseline,5.1 mm
same,Skinfold thickness subscapular: median,[1]; Baseline,8.0 mm
same,Skinfold thickness suprailiacal: median,[1]; Baseline,7.0 mm
same,Skinfold thickness triceps: median,[1]; Baseline,12.0 mm
same,Arm circumference: mean (SD),[1]; Day 28,27.33 (4.81) cm
same,Body weight: mean (SD),[1]; Day 28,63.21 (10.45) kg
same,Skinfold thickness biceps: median,[1]; Day 28,4.1 mm
same,Skinfold thickness subscapular: median,[1]; Day 28,8.6 mm
same,Skinfold thickness suprailiacal: median,[1]; Day 28,7.3 mm
same,Skinfold thickness triceps: median,[1]; Day 28,13.3 mm
same,Arm circumference: adjusted difference,[1]; vs placebo,0.33 cm
same,Body weight: adjusted difference,[1]; vs placebo,0.96 kg
same,Skinfold thickness triceps: ratio,[1]; vs placebo,1.066
same,Fat free mass (kg): mean (SD),"[1]; anthropometry, Baseline",46.64 (9.13) kg
same,Fat mass (%): median,"[1]; anthropometry, Baseline",25.4%
same,Fat mass (kg): median,"[1]; anthropometry, Baseline",15.8 kg
same,Fat free mass (kg): mean (SD),"[1]; anthropometry, Baseline, listed as GHRH(1-29)NH2 synthetic analog",46.64 kg
same,Fat free mass (kg): mean (SD),"[1]; anthropometry, Day 28",46.20 (9.16) kg
same,Fat mass (%): median,"[1]; anthropometry, Day 28",25.9%
same,Fat mass (kg): median,"[1]; anthropometry, Day 28",15.6 kg
same,Fat free mass (kg): mean (SD),"[1]; anthropometry, Day 28, listed as GHRH(1-29)NH2 synthetic analog",46.20 kg
same,Fat free mass (kg): adjusted difference,"[1]; anthropometry, vs placebo",0.41 kg
same,Leucine flux: mean (SD) change from baseline to Day 28,protein turnover; ITT,1.15 (30.09) μmol/kg · hr
same,Leucine flux: median change from baseline to Day 28,protein turnover; ITT,-0.4 µmol/kg/h
same,Leucine oxidation: mean (SD) change from baseline to Day 28,protein turnover; ITT,2.38 (5.66) μmol/kg · hr
same,Leucine oxidation: median change from baseline to Day 28,protein turnover; ITT,2.3 µmol/kg/h
same,Oxidation of flux: mean (SD) change from baseline to Day 28,protein turnover; ITT,2.64 (6.26) %
same,Oxidation of flux: median change from baseline to Day 28,protein turnover; ITT,3.8%
same,Protein breakdown: mean (SD) change from baseline to Day 28,protein turnover; ITT,1.16 (30.11) μmol/kg · hr
same,Protein breakdown: median change from baseline to Day 28,protein turnover; ITT,-0.4 µmol/kg/h
same,Protein synthesis of flux: mean (SD) change from baseline to Day 28,protein turnover; ITT,−2.64 (6.26) %
same,Protein synthesis of flux: median change from baseline to Day 28,protein turnover; ITT,−3.8%
same,Protein synthesis: mean (SD) change from baseline to Day 28,protein turnover; ITT,−1.22 (30.75) μmol/kg · hr
same,Protein synthesis: median change from baseline to Day 28,protein turnover; ITT,-4.6 µmol/kg/h
same,Leucine flux: median,"protein turnover; ITT, Baseline",98.3 µmol/kg/h
same,Leucine oxidation: mean (SD),"protein turnover; ITT, Baseline",7.74 μmol/kg · hr and 7.74 (4.51) μmol/kg · hr
same,Leucine oxidation: median,"protein turnover; ITT, Baseline",5.8 µmol/kg/h
same,Oxidation of flux: mean (SD),"protein turnover; ITT, Baseline",7.61 (4.19) %
same,Oxidation of flux: median,"protein turnover; ITT, Baseline",6.9%
same,Protein breakdown: mean (SD),"protein turnover; ITT, Baseline",97.45 (21.53) μmol/kg · hr
same,Protein breakdown: median,"protein turnover; ITT, Baseline",94.2 µmol/kg/h
same,Protein synthesis of flux: mean (SD),"protein turnover; ITT, Baseline",92.39 (4.19) %
same,Protein synthesis of flux: median,"protein turnover; ITT, Baseline",93.1%
same,Protein synthesis: mean (SD),"protein turnover; ITT, Baseline",93.71 (20.38) μmol/kg · hr
same,Protein synthesis: median,"protein turnover; ITT, Baseline",88.9 µmol/kg/h
same,Leucine oxidation: mean (SD),protein turnover; [4],7.74 µmol/kg/h
same,Protein breakdown: mean (SD),protein turnover; [4],97.45 µmol/kg/h
same,Protein synthesis: mean (SD),protein turnover; [4],93.71 µmol/kg/h
same,Leucine oxidation: adjusted mean difference (analog-placebo),protein turnover; ITT,1.1 μmol/kg · hr
same,Leucine flux: mean (SD) change from baseline to Day 28,protein turnover; [5],1.15 µmol/kg/h
same,Leucine oxidation: mean (SD) change from baseline to Day 28,protein turnover; [5],2.38 µmol/kg/h
same,Protein breakdown: mean (SD) change from baseline to Day 28,protein turnover; [5],1.16 µmol/kg/h
same,Protein synthesis of flux: median change from baseline to Day 28,protein turnover; [5],-3.8%
same,Protein synthesis: mean (SD) change from baseline to Day 28,protein turnover; [5],-1.22 µmol/kg/h
same,Leucine flux: mean (SD),"protein turnover; ITT, Baseline",101.46 (21.54) μmol/kg · hr
same,Leucine flux: mean (SD),protein turnover; [4],101.46 µmol/kg/h
same,Leucine flux: adjusted mean difference,"protein turnover; ITT, vs placebo",7.5 µmol/kg/h
same,Protein breakdown: adjusted mean difference,"protein turnover; ITT, vs placebo",7.5 µmol/kg/h
same,Protein synthesis: adjusted mean difference,"protein turnover; ITT, vs placebo",6.9 µmol/kg/h
same,Oxidation of flux: adjusted mean difference,"protein turnover; ITT, vs placebo, ANCOVA assuming log-normal distribution",1.48%
same,Leucine oxidation: mean (SD) change from baseline to Day 28,protein turnover; PP (Leucine Kinetic),1.90 (6.24) μmol/kg · hr
same,Leucine oxidation: median change from baseline to Day 28,protein turnover; PP (Leucine Kinetic),2.3 µmol/kg/h
same,Leucine oxidation: mean (SD),"protein turnover; PP (Leucine Kinetic), Baseline",7.81 (5.42) μmol/kg · hr
same,Leucine oxidation: median,"protein turnover; PP (Leucine Kinetic), Baseline",5.6 µmol/kg/h
same,Leucine oxidation: adjusted mean difference (analog-placebo),protein turnover; PP (Leucine Kinetic),3.3 μmol/kg · hr
same,Median IGF-1 after treatment discontinuation,[2],368.2 ng/mL
same,Mean systolic blood pressure,[3]; Day 7,136.4 mmHg
same,Mean systolic blood pressure,[3]; Day 14,139.9 mmHg
same,Mean systolic blood pressure,[3]; Day 21,143.1 mmHg
same,Diastolic blood pressure: mean (SD),[3]; Baseline,82.7 (10.9) mmHg
same,Heart rate: mean (SD),[3]; Baseline,77.7 (11.1) bpm
same,Systolic blood pressure: mean (SD),[3]; Baseline,144.8 (16.0) mmHg
same,Diastolic blood pressure: mean (SD),[3]; Day 28,76.7 (8.1) mmHg
same,Heart rate: mean (SD),[3]; Day 28,76.4 (9.8) bpm
same,Systolic blood pressure: mean (SD),[3]; Day 28,128.3 (16.5) mmHg
same,Mean systolic blood pressure,[3]; screening,142.0 mmHg
